Results as given in ChEMBL document CHEMBL3046217, “Synthesis, antimicrobial, antioxidant, anti-inflammatory, and analgesic activities of some new 3-(2-thienyl)pyrazole-based heterocycles” (Med Chem Res, 2012).
Values after ≈ are worked out from the molar mass of the structure shown. Active and inactive are the calls of the source. The rule behind the calls is not given here.

Assays:
[1] = test system: Bacillus spizizenii; assay: Antimicrobial activity against Bacillus subtilis subsp. spizizenii ATCC 6633 after 24 hr by agar diffusion method; assay type: functional; conditions: for MIC: Bacillus spizizenii, ATCC 6633, 24 h
[2] = test system: Klebsiella pneumoniae; assay: Antimicrobial activity against Klebsiella pneumoniae ATCC 13883 after 24 hr by agar diffusion method; assay type: functional; conditions: for MIC: Klebsiella pneumoniae, ATCC 13883, 24 h
[3] = test system: Mycolicibacterium phlei; assay: Antimicrobial activity against Mycobacterium phlei after 24 hr by agar diffusion method; assay type: functional
[4] = test system: Salmonella typhi; assay: Antimicrobial activity against Salmonella enterica subsp. enterica serovar Typhi after 24 hr by agar diffusion method; assay type: functional; conditions: for MIC: Salmonella enterica, 24 h
[5] = test system: Enterobacter cloacae; assay: Antimicrobial activity against Enterobacter cloacae ATCC 3047 after 24 hr by agar diffusion method; assay type: functional; conditions: for MIC: Enterobacter cloacae, ATCC 3047, 24 h
[6] = test system: Staphylococcus aureus; assay: Antimicrobial activity against Staphylococcus aureus ATCC 29213 after 24 hr by agar diffusion method; assay type: functional; conditions: for MIC: Staphylococcus aureus, ATCC 29213, 24 h
[7] = test system: Pseudomonas aeruginosa; assay: Antimicrobial activity against Pseudomonas aeruginosa ATCC 29953 after 24 hr by agar diffusion method; assay type: functional; conditions: for MIC: Pseudomonas aeruginosa, ATCC 29953, 24 h
[8] = test system: Candida albicans; assay: Antimicrobial activity against Candida albicans NRRLY-477 after 24 hr by agar diffusion method; assay type: functional; conditions: for MIC: Candida albicans, NRRLY-477, 24 h
[9] = test system: Enterococcus faecalis; assay: Antimicrobial activity against Enterococcus faecalis ATCC 29212 after 24 hr by agar diffusion method; assay type: functional; conditions: for MIC: Enterococcus faecalis, ATCC 29212, 24 h
[10] = test system: Saccharomyces cerevisiae; assay: Antimicrobial activity against Saccharomyces cerevisiae after 24 hr by agar diffusion method; assay type: functional; conditions: for MIC: Saccharomyces cerevisiae, 24 h
[11] = test system: Escherichia coli; conditions: ATCC 25922
Description: Antimicrobial activity against Escherichia coli ATCC 25922 after 24 hr by agar diffusion method

[12] = test system: Aspergillus niger; assay: Antimicrobial activity against Aspergillus niger after 24 hr by agar diffusion method; assay type: functional, organism-based
[13] = test system: Radical scavenging activity; assay: Antioxidant activity assessed as as DPPH radical scavenging activity by spectrophotometry; assay type: functional
[14] = test system: Rattus norvegicus; assay: Anti-inflammatory activity in Rattus norvegicus Sprague-Dawley (rat) assessed as inhibition of carrageenan-induced paw edema at 20 mg/kg, po administered 1 hr before carrageenan challenge and measured hourly for 4-hr post drug administration by mercury plethysmometer; assay type: functional, organism-based; parameters: dose 20 mg/kg
[15] = test system: Mus musculus; assay: Analgesic activity in Mus musculus Swiss albino (mouse) assessed as inhibition of acetic acid-induced writhing at 20 mg/kg, po administered 30 min before acetic acid challenge measured for 20 min after acetic acid injection […]; assay type: functional, organism-based; parameters: dose 20 mg/kg

Row | Compound | inhibition zone (IZ) [1] | inhibition zone (IZ) [2] | inhibition zone (IZ) [3] | inhibition zone (IZ) [4] | inhibition zone (IZ) [5] | inhibition zone (IZ) [6] | inhibition zone (IZ) [7] | inhibition zone (IZ) [8] | inhibition zone (IZ) [9] | inhibition zone (IZ) [10] | MIC [10] | IZ [11] | Activity [12] | MIC [1] | IC50 [13] | MIC [5] | MIC [6] | inhibition [14] | inhibition [15] | MIC [9] | also measured
1 | CC(=O)N1CCN(c2ccc(OCC3COC(Cn4ccnc4)(c4ccc(Cl)cc4Cl)O3)cc2)CC1 (racemic) [KETOCONAZOLE] | inactive | inactive | inactive | inactive | inactive | inactive | inactive | 22 mm | inactive | 23 mm | 5.2 µg/mL (≈ 9.78 µM) | inactive | – | – | – | – | – | – | – | – | MIC [8]: 10.4 µg/mL (≈ 19.6 µM)
2 | Cc1nc(N/N=C\c2cn(-c3ccccc3)nc2-c2cccs2)sc1/N=N/c1ccc(F)cc1 | 22 mm | 18 mm | inactive | inactive | 26 mm | 21 mm | 19 mm | 17 mm | 16 mm | 31 mm | 20.8 µg/mL (≈ 42.7 µM) | inactive | inactive | 167 µg/mL (≈ 342 µM) | 25 µg/mL (≈ 51.3 µM) | 41.6 µg/mL (≈ 85.3 µM) | 41.8 µg/mL (≈ 85.7 µM) | Active | Active | – | MIC [2]: 167 µg/mL (≈ 342 µM); MIC [7]: 333 µg/mL (≈ 684 µM); MIC [8]: 167 µg/mL (≈ 342 µM)
3 | C(=N/Nc1nc2nc3ccccc3nc2s1)/c1cn(-c2ccccc2)nc1-c1cccs1 | 26 mm | inactive | 15 mm | inactive | 18 mm | 21 mm | 28 mm | inactive | 21 mm | 28 mm | 41.6 µg/mL (≈ 91.7 µM) | inactive | inactive | 41.6 µg/mL (≈ 91.7 µM) | 500 µg/mL (≈ 1100 µM) | 333 µg/mL (≈ 735 µM) | 333 µg/mL (≈ 735 µM) | Active | Active | 167 µg/mL (≈ 367 µM) | MIC [7]: 41.6 µg/mL (≈ 91.7 µM)
4 | O=C(O)Cc1ccccc1Nc1c(Cl)cccc1Cl | – | – | – | – | – | – | – | – | – | – | – | – | – | – | – | – | – | Active | Active | – | –
5 | O=c1oc2ccccc2cc1-c1csc(N/N=C\c2cn(-c3ccccc3)nc2-c2cccs2)n1 | 21 mm | 14 mm | inactive | inactive | 14 mm | 11 mm | inactive | inactive | 22 mm | inactive | – | inactive | inactive | 167 µg/mL (≈ 336 µM) | 25 µg/mL (≈ 50.4 µM) | – | – | Active | Active | 83.3 µg/mL (≈ 168 µM) | –
6 | N/C(=N/N=C\c1cn(-c2ccccc2)nc1-c1cccs1)SCC(=O)Nc1cccs1 | 23 mm | 18 mm | inactive | inactive | 28 mm | 28 mm | 15 mm | 15 mm | 21 mm | inactive | – | inactive | inactive | 83.3 µg/mL (≈ 179 µM) | 1000 µg/mL (≈ 2140 µM) | 20.8 µg/mL (≈ 44.6 µM) | 20.8 µg/mL (≈ 44.6 µM) | Active | Active | 83.3 µg/mL (≈ 179 µM) | MIC [2]: 167 µg/mL (≈ 357 µM)
7 | O=C1CS/C(=N\N=C/c2cn(-c3ccccc3)nc2-c2cccs2)N1 | 19 mm | inactive | inactive | inactive | 13 mm | 29 mm | inactive | inactive | 15 mm | 29 mm | 41.6 µg/mL (≈ 113 µM) | inactive | inactive | 167 µg/mL (≈ 453 µM) | 500 µg/mL (≈ 1360 µM) | – | 20.8 µg/mL (≈ 56.6 µM) | Active | Active | – | –
8 | Clc1ccc(C2=NNC(c3cn(-c4ccccc4)nc3-c3cccs3)C2)cc1 (centres undefined) | 17 mm | inactive | inactive | inactive | 21 mm | 20 mm | 26 mm | 17 mm | 21 mm | 31 mm | 20.8 µg/mL (≈ 51.4 µM) | inactive | inactive | 333 µg/mL (≈ 823 µM) | 750 µg/mL (≈ 1850 µM) | 83.3 µg/mL (≈ 206 µM) | 333 µg/mL (≈ 823 µM) | Active | Active | 41.6 µg/mL (≈ 103 µM) | MIC [7]: 167 µg/mL (≈ 411 µM); MIC [8]: 167 µg/mL (≈ 411 µM)
9 | Cc1ccc(NC(=S)N2N=C(c3ccc(Cl)cc3)CC2c2cn(-c3ccccc3)nc2-c2cccs2)cc1 (centres undefined) | 21 mm | 21 mm | 13 mm | inactive | 16 mm | 15 mm | inactive | 15 mm | 21 mm | inactive | – | inactive | inactive | 167 µg/mL (≈ 301 µM) | 500 µg/mL (≈ 902 µM) | – | – | Active | Active | 167 µg/mL (≈ 301 µM) | MIC [2]: 333 µg/mL (≈ 601 µM)
10 | O=C(O)c1cn(C2CC2)c2cc(N3CCNCC3)c(F)cc2c1=O [CIPROFLOXACIN] | 22 mm | – | 22 mm | 21 mm | – | – | 24 mm | inactive | 23 mm | inactive | – | – | – | 10.4 µg/mL (≈ 31.4 µM) | – | – | – | – | – | – | MIC [4]: 41.6 µg/mL (≈ 126 µM)
11 | C(=N/Nc1nc(-c2cc3ccccc3o2)cs1)/c1cn(-c2ccccc2)nc1-c1cccs1 | 23 mm | 15 mm | inactive | inactive | 15 mm | 21 mm | 14 mm | inactive | 15 mm | inactive | – | inactive | inactive | 167 µg/mL (≈ 356 µM) | 25 µg/mL (≈ 53.5 µM) | – | 167 µg/mL (≈ 356 µM) | Active | Active | – | –
12 | O=C(/C=C/c1cn(-c2ccccc2)nc1-c1cccs1)c1ccc(Cl)cc1 | 21 mm | 18 mm | 15 mm | 24 mm | 24 mm | 21 mm | 19 mm | 18 mm | 21 mm | 29 mm | 20.8 µg/mL (≈ 53.2 µM) | inactive | inactive | 167 µg/mL (≈ 426 µM) | 1000 µg/mL (≈ 2560 µM) | 41.6 µg/mL (≈ 106 µM) | 167 µg/mL (≈ 426 µM) | Active | Active | 83.3 µg/mL (≈ 213 µM) | MIC [2]: 167 µg/mL (≈ 426 µM); MIC [4]: 83.3 µg/mL (≈ 213 µM); MIC [7]: 333 µg/mL (≈ 853 µM); MIC [8]: 167 µg/mL (≈ 426 µM)
13 | NC(=S)N/N=C\c1cn(-c2ccccc2)nc1-c1cccs1 | 29 mm | 28 mm | 16 mm | 28 mm | 26 mm | 21 mm | 15 mm | 16 mm | 13 mm | 30 mm | 20.8 µg/mL (≈ 63.5 µM) | inactive | inactive | 20.8 µg/mL (≈ 63.5 µM) | 500 µg/mL (≈ 1530 µM) | 20.8 µg/mL (≈ 63.5 µM) | 83.3 µg/mL (≈ 254 µM) | Active | Active | – | MIC [2]: 20.8 µg/mL (≈ 63.5 µM); MIC [4]: 20.8 µg/mL (≈ 63.5 µM)
